Data set [1] has as its system TNFα-induced, MAP3K1-mediated IKKβ phosphorylation. Description: AlphaLISA phospho-IKKβ / total IKKβ assay in MiaPaCa2 cells. Format: cell-based, Human. The note with it: 20, 10, 5 μM, 30 min pretreatment, 10 ng/mL TNFα. The source says:
MAP3K1 was previously shown to phosphorylate IKKβ [12] and regulate NF-κB signaling. Therefore, we validated the ability of 51-106 to inhibit MAP3K1 by probing the phosphorylation status of the known substrate, IKKβ, using an AlphaLISA assay. The pancreatic cancer cells (MiaPaCa2) were subjected to a 30-min pretreatment with varying concentrations of 51-106, followed by TNFα stimulation to induce IKKβ phosphorylation. Following a 15-min stimulation, the levels of phospho-IKKβ and total IKKβ were quantified. […] (Figure 3A). Next, we evaluated the efficacy of 51-106 in a cell-based reporter assay utilizing a HeLa cell line that specifically responds to TNFα induced expression of a luciferase reporter gene that is under the control of an NF-κB response element.
A suspension of MiaPaCa2 cells (2 × 10^5/well) in 200 μL media was plated in a flat, clear-bottomed, sterile, 48-well tissue culture plate (Cat# 353230; Corning; Corning, NY, USA). The cells were allowed to attach to the plate for ~8 h in a humidified 5% CO2 incubator at 37 °C. […] Phospho-IKKβ levels were normalized to total […], and fold change was calculated compared to DMSO treatment. […] The statistical significance between groups was determined via unpaired t-tests coupled with post hoc analysis with Welch’s correction.

The nature of data set [2]: Pharmacokinetic studies, oral and intravenous dosing. The data set is classed as in vivo, CD1 mice. The note with it: for MRT inf: read-out: MRT 0-∞. The method, then: Next, we conducted pharmacokinetic (PK) studies with 51-106. Briefly, mice were dosed either intravenously (IV) or orally with 10 mg/kg of 51-106 and sampled at 0.083, 0.25, 0.5, 1, 2, 4, 8, and 24 h. […] This was accomplished by strategic placement of fluorine atoms at metabolically vulnerable sites on the molecule.
Pharmacokinetic studies (10 mg/kg oral and intravenous dosing) were performed following previously reported methods. Sample analysis was performed by liquid chromatography–tandem mass spectrometry (SCIEX QTRAP 4000 LC-MS/MS System). The pharmacokinetic parameters were determined using non-compartmental analyses module of WinNonlin 1.5.

Data set [3] concerns NPM1 T199 phosphorylation. Description: Western blot of NPM1 T199 phosphorylation in PANC-1 cells. The data set is classed as cell-based. The note with it: 2 h. From the text:
We further investigated changes in NPM1 phosphorylation in our dataset. Of the NPM1 phosphorylation sites quantified, four sites had significant dose-dependent decreases upon 51-106 treatment: S137, T199, S222, and S227. Only one of these phosphorylation sites, T199, has a commercially available antibody. Importantly, T199 phosphorylation plays an essential role in NPM1 function, as it is required for localization of NPM1 to sites of DNA double-stranded breaks, where it colocalizes with other DNA repair proteins such as γH2AX and RAD51 [38].
Cells were washed with cold 1× PBS and lysed in Radioimmunoprecipitation assay (RIPA) buffer (Cat# 89901; Thermo Fisher Scientific), sodium orthovanadate (Na3VO4) (Cat# 567540-5GM; Sigma-Aldrich; St. Louis, MO, USA), sodium fluoride (NaF) (Cat# 201154-5G, >99% purity; Sigma-Aldrich), β-glycerophosphate (Cat# G9422-10G; Sigma-Aldrich), and 1 mM phenylmethylsulfonyl fluoride (Cat# 10837091001; Sigma Aldrich). The samples were incubated on ice for 30 min, vortexed at 10 min intervals, and centrifuged at 14,000× g for 10 min at 4 °C. The supernatant was collected, and protein was quantified using the BCA Protein Assay kit (Cat# 23225; Thermo Fisher Scientific). […]

The mark [4] stands for this setting: mouse, in vivo, CD1 mice, 10 mg/kg, Intravenous.
Setting [5] is: mouse, in vivo, CD1 mice, 10 mg/kg, Oral.

Molecules are shown by their SMILES. Read-outs that look alike come from different tables or passages of the source.

For `Cn1cc(-c2cnc3ccc(NC(=O)Nc4ccc(F)c(C(F)(F)F)c4)cc3n2)cn1` [51-106, 1-(4-Fluoro-3-(trifluoromethyl)phenyl)-3-(3-(1-methyl-1H-pyrazol-4-yl)quinoxalin-6-yl)urea], in data set [1], the “TNFα-induced, MAP3K1-mediated IKKβ phosphorylation (phospho-IKKβ / total IKKβ)” value was “inhibits TNFα-induced, MAP3K1-mediated IKKβ phosphorylation in a dose-dependent manner”. For the same compound, in data set [2] (51-106 compared to analog 84), the “improvement of oral bioavailability” value is reported as ~ 3.5 fold and the “improvement of t1/2 in mice” value is listed as ~ 1.4 fold. The bioavailability in data set [2] (CD1, mouse, in vivo, po, 10 mg/kg, CD1 mice, 10 mg/kg, Oral, read-out: Bioavailability (%F)) amounted to 62.3%. Besides, in data set [2] (CD1 mice, 10 mg/kg, Oral), the “Bioavailability (%F)” value is roughly 62%. In data set [2] (setting [4]), this compound gave an AUC(0-inf) of 9120 ± 755 ng·h/mL, an AUC(0-t) of 8960 ± 812 ng·h/mL, a Cmax of 4380 ± 447 ng/mL and a half-life of 1.7 ± 0.3 h. Besides, the MRT inf in data set [2] (setting [4]) stood at 2.2 ± 0.3 h. For the same compound, the Vd in data set [2] (mouse, in vivo, CD1 mice, 10 mg/kg, Intravenous, read-out: Vss) is 2.5 ± 0.3 L/kg. Besides, in data set [2] (setting [5]), the area under the curve AUC(0-inf) came out at 5680 ± 1930 ng·h/mL, the AUC(0-t) stood at 4580 ± 2500 ng·h/mL, the highest level (Cmax) was 689 ± 190 ng/mL and the Tmax was found to be 2.7 h. In data set [2] (setting [5]), the half-life was 3.5 h and the MRT inf is 6.4 ± 1.5 h. Besides, the “NPM1 T199 phosphorylation (Western blot)” value in data set [3] is reported as “Decreased phosphorylation in NPM1 T199”.

For the origin of these results see publication PMC12073402, “A Selective MAP3K1 Inhibitor Facilitates Discovery of NPM1 as a Member of the Network” (Molecules, 2025).
